Experimental data: patent US20110207740A1, “PHARMACEUTICAL COMPOSITIONS” (priority 2003, published 2011)

What was measured:
pKa (titrated) = format: physicochemical
Protocol: As expected, solubility improves with ionization. However, even when essentially all of the compound carries a +1 charge, the aqueous solubility remains poor, e.g., at pH 4 the solubility is <2 μg/mL. Similarly, at pH 2 the average charge will be +2 but, the solubility for this strongly charged compound is only 1 mg/mL. Based on the pKa values, under still more acidic conditions this compound will have an average charge of +3 and the solubility might be expected to increase further. However, no further increase in solubility has been achieved, i.e., at pH 1.0 (0.1 NHCL) the solubility of this compound decreases to <1 mg/mL. This type of decrease in solubility is consistent with the formation of insoluble chloride salts.

[1] = Formula I:docusate complex dissolved in propylene glycol (Example 1); format: physicochemical
Protocol: A non-aqueous embodiment of the formulations of the present invention was prepared as set forth by the following procedure. A first solution was prepared by adding 100 mg of the compound of Formula I above to 500 mL of 0.01 NHCL. Next, a second Solution was prepared by adding 20 grams of sodium docusate to 500 mL of 0.01 NHCL. These two solutions were mixed and a complex of the compound of Formula I and docusate sodium was precipitated from solution. The precipitate was thereafter separated by centrifuging the mixture, decanting the supernatant and then drying the residue complex.
The dried residue was then dissolved in a small quantity of propylene glycol and the concentration of the compound of Formula I in this solution was determined to be 2.5 mg/mL.

[2] = Extraction of Formula 1 from stock solutions into soybean oil; format: physicochemical; conditions: excess Formula 1
[3] = Formula 1 concentration in acidified propylene glycol stock solutions and after dilution with deionized water; format: physicochemical
Excerpt: [table] […] In this way, the concentration of propylene glycol was decreased 10 fold from the initial concentration of 86% to a final concentration of 8.6%. […] Similarly, Formula 1 solubility should not be affected by the 2-10× dilution of sodium docusate as this surfactant will still be present at levels above its critical micelle concentration (CMC).

[4] = Aqueous solubility (buffers, pH dependence); format: physicochemical
Excerpt: As expected, solubility improves with ionization. […] This type of decrease in solubility is consistent with the formation of insoluble chloride salts. […] However, as shown in the Table 1 below, the A2a receptor antagonist compound described above has both low aqueous and non-aqueous solubility.

A2a receptor = A2a receptor (Homo sapiens, UniProt P29274); conditions: cited from earlier work
Chain of A2a receptor (P29274 whole entry): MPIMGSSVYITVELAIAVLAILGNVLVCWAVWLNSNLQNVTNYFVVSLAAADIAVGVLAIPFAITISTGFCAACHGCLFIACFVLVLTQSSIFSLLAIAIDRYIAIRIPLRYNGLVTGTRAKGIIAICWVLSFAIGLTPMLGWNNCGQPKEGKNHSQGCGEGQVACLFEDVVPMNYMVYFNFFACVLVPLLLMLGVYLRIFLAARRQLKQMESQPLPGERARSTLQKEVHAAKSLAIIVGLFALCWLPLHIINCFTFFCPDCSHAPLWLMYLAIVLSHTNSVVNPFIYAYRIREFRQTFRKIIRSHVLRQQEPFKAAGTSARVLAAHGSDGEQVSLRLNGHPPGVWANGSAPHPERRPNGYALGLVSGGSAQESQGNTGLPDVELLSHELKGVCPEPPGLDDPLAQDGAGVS

[5] = Non-aqueous solubility (ethanol, propylene glycol, soybean oil); format: physicochemical
Excerpt: However, as shown in the Table 1 below, the A2a receptor antagonist compound described above has both low aqueous and non-aqueous solubility.

[6] = Precipitation from acidic aqueous solution in presence of sodium docusate; format: physicochemical; conditions: pH 2.0, 0.1 mg/mL aqueous solution
Excerpt: For aqueous formulations of the present invention, surfactants such sodium docusate are typically added to improve aqueous solubility. However, sodium docusate actually decreases the aqueous solubility of 7-[2-[4-[4-(methoxyethoxy)phenyl]1-piperazinyl]ethyl]-2-(2-furanyl)-7H-pyrazolo[4,3-e]triazolo[1,5-c]pyrimidin-5-amine under acidic conditions. […] More specifically, by “ion-pair” it is meant to mean the non-covalent bonding of two oppositely charged molecules.

COCCOc1ccc(N2CCN(CCn3ncc4c3nc(N)n3nc(-c5ccco5)nc43)CC2)cc1 [Formula 1, 7-[2-[4-[4-(methoxyethoxy)phenyl]1-piperazinyl]ethyl]-2-(2-furanyl)-7H-pyrazolo[4,3-e]triazolo[1,5-c]pyrimidin-5-amine]
pKa (pKa (titrated)): 6.87
Solubility relative to compound alone in propylene glycol ([1]; Formula I:docusate complex in propylene glycol): more than 80 fold
Concentration of the compound of Formula I in propylene glycol solution ([1]; dried Formula I:docusate sodium complex dissolved in propylene glycol): 2.5 mg/mL
Concentration relative to active compound and propylene glycol only ([1]; formulated with docusate sodium in acidified propylene glycol): 80 times
Soybean Oil Amt. Extracted ([2]; extracted from stock solution 1 (acidified propylene glycol)): 0.006 mg/mL
Soybean Oil Amt. Extracted ([2]; extracted from stock solution 2 (acidified propylene glycol + Tween 80)): 0.007 mg/mL
Soybean Oil Amt. Extracted ([2]; extracted from stock solution 3 (acidified propylene glycol + docusate sodium)): 0.28 mg/mL
Formula 1 concentration, 86% PG/(Stock) ([3]; Stock solution 1: acidified propylene glycol (86% v/v, citric acid/HCl to pH 3.4), undiluted): 9.8 mg/mL
Formula 1 concentration, 43% PG/DF2 ([3]; Stock solution 1: acidified propylene glycol, diluted with deionized water DF2): 4.6 mg/mL
Formula 1 concentration, 17% PG/DF4 ([3]; Stock solution 1: acidified propylene glycol, diluted with deionized water DF4): 1.9 mg/mL
Formula 1 concentration, 8.6% PG/DF10 ([3]; Stock solution 1: acidified propylene glycol, diluted with deionized water DF10): 0.97 mg/mL
Formula 1 concentration, 86% PG/(Stock) ([3]; Stock solution 2: acidified propylene glycol + 36 mg/mL Tween 80, undiluted): 8.7 mg/mL
Formula 1 concentration, 43% PG/DF2 ([3]; Stock solution 2: acidified propylene glycol + Tween 80, diluted with deionized water DF2): 4.0 mg/mL
Formula 1 concentration, 17% PG/DF4 ([3]; Stock solution 2: acidified propylene glycol + Tween 80, diluted with deionized water DF4): 1.8 mg/mL
Formula 1 concentration, 8.6% PG/DF10 ([3]; Stock solution 2: acidified propylene glycol + Tween 80, diluted with deionized water DF10): 0.78 mg/mL
Formula 1 concentration, 86% PG/(Stock) ([3]; Stock solution 3: acidified propylene glycol + 61 mg/mL docusate sodium, undiluted): 9.2 mg/mL
Formula 1 concentration, 43% PG/DF2 ([3]; Stock solution 3: acidified propylene glycol + docusate sodium, diluted with deionized water DF2): 0.14 mg/mL
Formula 1 concentration, 17% PG/DF4 ([3]; Stock solution 3: acidified propylene glycol + docusate sodium, diluted with deionized water DF4): 0.037 mg/mL
Formula 1 concentration, 8.6% PG/DF10 ([3]; Stock solution 3: acidified propylene glycol + docusate sodium, diluted with deionized water DF10): 0.011 mg/mL
Maximum concentration relative to solubility in propylene glycol ([3]; acidified propylene glycol without docusate): 300 times
Concentration relative to solubility in propylene glycol ([3]; direct addition to acidified propylene glycol and docusate): greater than 300 times
Concentration in acidified propylene glycol solution ([3]; propylene glycol solution acidified to ionize the active compound): more than 9 mg/mL
solubility ([4]; 0.1 N HCl, pH 1, simulated gastric fluid, pH 1.0 (0.1 NHCL)): < 1000 µg/mL
Aqueous Solubility ([4]; Buffer pH 4): 1.7 µg/mL
solubility ([4]; aqueous buffer, pH 3, aqueous buffer, Buffer pH 3): 105 µg/mL
solubility ([4]; aqueous buffer, pH 4, aqueous buffer, Buffer pH 4): < 2 µg/mL
solubility ([4]; aqueous buffer, pH 7.4, aqueous buffer, Buffer pH 7.4): < 0.005 µg/mL
solubility ([4]; aqueous medium, pH 2, simulated gastric fluid, pH 2): 1000 µg/mL
Solubility in aqueous media ([4]; neutral pH): virtually insoluble
Potency as an A2a receptor antagonist (A2a receptor): considerable potency
solubility ([5]; ethanol, organic solvent or mixture): 100 µg/mL
solubility ([5]; propylene glycol, organic solvent or mixture, Propylene Glycol (neutral compound)): ~30 µg/mL
solubility ([5]; soybean oil, oil or lipid): < 70 µg/mL
Behaviour of solution in presence of sodium docusate [6]: precipitate out of solution
